The record followed here is patent US10945986B2, “Treatment for ischemic stroke” (CHS Pharma, Inc., priority 2012, dated 2021).

The subject of assay [1] is middle cerebral artery occlusion (MCAO) stroke-induced brain infarction. Briefly: MCAO rat stroke model, infarct size by TTC staining. Format: in vivo, Sprague-Dawley rats. Conditions: for reduction of ischemia-induced brain infarct size: DETC-MeSO 5.6 mg/kg i.p. 24 hr post MCAO/reperfusion, 8 animals; for effect of individual drug on ischemia-induced infarct size: individual drug at 1/10 dose (G-CSF 10 ug/kg; DETC-MeSO 0.56 mg/kg; sulindac 0.2 mg/kg), 24 hrs post MCAO.

In assay [2] the test system is C/EBP homologues protein (CHOP). Nature of the assay: CHOP expression (Western blot) in primary neuronal cultures subjected to hypoxia and reoxygenation. Type of assay: cell-based. Conditions: 24 hours hypoxia, 16 hours reoxygenation; densitometry vs actin. The method, then:
Primary neuronal cultures were subjected to 24 hours of hypoxia followed by 16 hours of reoxygenation and cells were harvested for protein extraction and Western blot analysis for expression of CHOP. Levels of CHOP were quantified by densitometry and expressed as a percentage of the signal for actin control samples.
(In general: Immunoblotting shows a protein as a band on a membrane.)

Assay [3] concerns P-IRE-1. Briefly: P-IRE-1 expression (Western blot) in primary neuronal cultures subjected to hypoxia and reoxygenation. Type of assay: cell-based. Conditions: 24 hours hypoxia, 16 hours reoxygenation; densitometry vs actin. Here is the method: Primary neuronal cultures were subjected to 24 hours of hypoxia followed by 16 hours of reoxygenation and cells were harvested for protein extraction and Western blot analysis for expression of P-IRE-1. Levels of P-IRE-1 were quantified by densitometry and expressed as a percentage of the signal for actin control samples.

Assay [4] deals with Bcl-2. Nature of the assay: Western blot of Bcl-2 in core and penumbra, MCAO model. Type of assay: in vivo, rat.
Assay [5] has as its system Hsp27. Briefly: Western blot of Hsp27 in core and penumbra, MCAO model. The settings on record: DETC-MeSO treatment prior to MCAO surgery and reperfusion, N=8. Type of assay: in vivo, rat.
Source text: Western blotting on the core and the penumbra tissue of both hemispheres was employed for analysis of the expression of key proteins involved in apoptosis (Bcl-2), and cell protection and survival e.g., two heat shock proteins (HSP27, HSP70) and AKT.
In assay [6] the test system is pAKT. Conditions: rat, in vivo.
Assay [7] has as its system JNK. Conditions: rat, in vivo.
Assay [8] deals with CHOP. Briefly: Western blot of CHOP, MCAO model. Type of assay: in vivo, rat. The settings on record: G-CSF, Western blotting.

As for `CCN(CC)C(=O)[S+](C)[O-]` (stereo not drawn) [DETC-MeSO, S-methyl-N, N-diethylthiolcarbamate sulfoxide], the “infarct size as % of the area of the infarcts in the no-drug control group” value in assay [1] (2 injections: 60 minutes before ischemia and 20 minutes before start of reperfusion, TTC) was found to be 29%. For the same molecule, the “reduction of ischemia-induced brain infarct size” value is on record as 64+/−11% in assay [1] (daily, 4 days) and 61+/−7% in assay [1] (daily, 8 days). The “brain infarct size (morphological observation, TTC)” value in assay [1] (DETC-MeSO 5.6 mg/kg intraperitoneal 24 hr post MCAO/reperfusion, daily, both 4 and 8 days) was “significantly reduced”. In assay [1] (DETC-MeSO 5.6 mg/kg one hour before MCAO surgery and reperfusion, continued 4 days, sacrificed 4th day, 1% TTC), the brain infarct size entry is recorded as “significantly reduced”. For the same molecule, the “decrease in infarct size compared with the no-drug treated group” value in assay [1] (DETC-MeSO 5.6 mg/kg pre-MCAO, 4 days, at 6 mm from frontal pole, N=21) was determined as 50%. The “brain infarct size compared to the control group” value in assay [1] (DETC-MeSO 1-7 mg, two injections (1 hr before MCAO surgery, day 11), sacrificed 11th day, 1% TTC) is listed as “significantly reduced”. Moreover, the “effect of individual drug on ischemia-induced infarct size” value in assay [1] (8 days) is given as “no significant effect”. Further, the “CHOP expression of hypoxia cells compared to DETC-MeSO-treated cells subjected to hypoxia” value in assay [2] was “about double”. For the same molecule, the “P-IRE-1 expression of hypoxia cells compared to DETC-MeSO-treated cells subjected to hypoxia” value in assay [3] is recorded as 3-3.5 times. Besides, in assay [4] (DETC-MeSO treatment prior to MCAO surgery and reperfusion, core and penumbra, N=8), the “Bcl-2 expression vs non-treated control animals” value was “significantly increased”. In addition, in assay [5], the “Hsp-27 expression vs non-treated control animals” value is given as “significantly increased”.

B1: granulocyte colony-stimulating factor (protein, UniProt P09919 31-207, looked up)
Granulocyte …: TPLGPASSLPQSFLLKCLEQVRKIQGDGAALQEKLVSECATYKLCHPEELVLLGHSLGIPWAPLSSCPSQALQLAGCLSQLHSGLFLYQGLLQALEGISPELGPTLDTLQLDVADFATTIWQQMEELGMAPALQPTQGAMPAFASAFQRRAGGVLVASHLQSFLEVSYRVLRHLAQP
notes: granulocyte colony-stimulating factor; a stem cell enhancer and facilitator
Consider B1, for which the “ischemia-induced brain infarct size vs non-treated control animals” value in assay [1] (G-CSF 50 μg/kg, 24 hours post ischemia) is given as “greatly reduced”. Besides, the “infarct volume vs control group” value in assay [1] (G-CSF 50 μg/kg, 24 hours post ischemia, n=5) is “significantly reduced”. Also, the “percentage of infarct volume in entire brain vs control group” value in assay [1] (G-CSF 50 μg/kg, 24 hours post ischemia, n=5, P<0.05) is “significantly reduced”. The “effect of individual drug on ischemia-induced infarct size” value in assay [1] (8 days) was “no significant effect”. Moreover, the “Bcl-2 expression (pro-survival/anti-apoptotic marker)” value in assay [4] (rat, in vivo) is “up-regulation”. Besides, the “pAKT expression (pro-survival/anti-apoptotic marker)” value in assay [6] is “up-regulation”. Moreover, in assay [7], the “JNK expression (pro-survival/anti-apoptotic marker)” value is recorded as “up-regulation”. The “CHOP expression (pro-apoptotic protein)” value in assay [8] is reported as “down-regulation”.
